Laboratory results reported in US11903983B2, “Composition comprising new Lactobacillus salivarius strains and method for the prevention and treatment of otitis and upper respiratory infections” (priority 2018, dated 2024).
Values after ≈ are worked out from the molar mass of the structure shown.

System: L. salivarius PS7
Assay: Antibiogram: MIC by VetMIC microdilution and E-test
Format: cell-based, Lactobacillus salivarius
Settings: not given
Experimental: The suspension was further adjusted to 3×10^5 CFU/ml with LSM, and 100 μl were inoculated to wells of microtiter VetMIC plates for lactic acid bacteria (National Veterinary Institute of Sweden, Uppsala, Sweden). The plates were incubated at 37° C. for 48 h and the MIC was defined as the lowest concentration at which no growth was observed.
Parallel, minimum inhibitory concentrations (MICs) were also determined by the E-test (AB BIODISK, Solna, Sweden) following the instructions of the manufacturer. Briefly, after overnight incubation, agar cultures were checked for purity. For inoculums preparation, individual colonies were suspended in a sterile glass culture tube containing 5 ml sterile saline (0.85% NaCl solution) until a density corresponding to a McFarland (McF) standard of 0.5 was obtained. A sterile cotton swab was dipped into the standardized inoculum and used to inoculate an agar plate. Inoculated plates were allowed to dry for approximately 15 min before application of the E-test strips with preformed antimicrobial gradients. […] For bacteriostatic agents (e.g., tetracycline, erythromycin and clindamycin), the MIC was read at the point where growth was inhibited by 80% (i.e., the first point of significant inhibition as judged by the naked eye).
Results from the different antibiotic susceptibility tests were interpreted according to the cut-off levels proposed by the European Food Safety Authority (EFSA, 2012).

CN[C@H](CC(C)C)C(=O)N[C@H]1C(=O)N[C@@H](CC(N)=O)C(=O)N[C@H]2C(=O)N[C@H]3C(=O)N[C@H](C(=O)N[C@H](C(=O)O)c4cc(O)cc(O)c4-c4cc3ccc4O)[C@H](O)c3ccc(c(Cl)c3)Oc3cc2cc(c3O[C@@H]2O[C@H](CO)[C@@H](O)[C@H](O)[C@H]2O[C@H]2C[C@](C)(N)[C@H](O)[C@H](C)O2)Oc2ccc(cc2Cl)[C@H]1O [Vancomycin] was tested, and the “antibiotic susceptibility of L. salivarius PS7 according to EFSA cut-off levels” value was “intrinsically resistant”.

Same assay, conditions: Ligilactobacillus salivarius, PS7, read-out: MICs (L. salivarius PS7)

Compared with CC1(C)S[C@@H]2[C@H](NC(=O)[C@H](N)c3ccccc3)C(=O)N2[C@H]1C(=O)O [Ampicillin], O=C(N[C@H](CO)[C@H](O)c1ccc([N+](=O)[O-])cc1)C(Cl)Cl [Chloramphenicol] is 4-fold higher in MIC: 0.5 µg/mL (≈ 1.43 µM) for the first, 2 µg/mL (≈ 6.19 µM) for the second.

First: CCC[C@@H]1C[C@@H](C(=O)N[C@@H]([C@H]2O[C@H](SC)[C@H](O)[C@@H](O)[C@H]2O)[C@H](C)Cl)N(C)C1 [Clindamycin]
Second: NC[C@H]1O[C@H](O[C@H]2[C@H](O)[C@@H](O[C@H]3O[C@H](CO)[C@@H](O)[C@H](N)[C@H]3O)[C@H](N)C[C@@H]2N)[C@H](O)[C@@H](O)[C@@H]1O [Kanamycin]
The MIC of the first is 260-fold lower: 0.5 µg/mL (≈ 1.18 µM) for the first, 128 µg/mL (≈ 264 µM) for the second.

First: CC[C@H]1OC(=O)[C@H](C)[C@@H](O[C@H]2C[C@@](C)(OC)[C@@H](O)[C@H](C)O2)[C@H](C)[C@@H](O[C@@H]2O[C@H](C)C[C@H](N(C)C)[C@H]2O)[C@](C)(O)C[C@@H](C)C(=O)[C@H](C)[C@@H](O)[C@]1(C)O [Erythromycin]
Second: [H]/N=C(/N)N[C@H]1[C@H](O)[C@@H](O)[C@H](O[C@@H]2O[C@@H](C)[C@](O)(C=O)[C@H]2O[C@@H]2O[C@@H](CO)[C@H](O)[C@@H](O)[C@@H]2NC)[C@@H](N/C(N)=N\[H])[C@@H]1O [Streptomycin]
The MIC of the first is 270-fold lower: 0.12 µg/mL (≈ 0.164 µM) for the first, 32 µg/mL (≈ 55 µM) for the second.

Compared with CC(=O)NC[C@H]1CN(c2ccc(N3CCOCC3)c(F)c2)C(=O)O1 [Linezolid], CN[C@H](CC(C)C)C(=O)N[C@H]1C(=O)N[C@@H](CC(N)=O)C(=O)N[C@H]2C(=O)N[C@H]3C(=O)N[C@H](C(=O)N[C@H](C(=O)O)c4cc(O)cc(O)c4-c4cc3ccc4O)[C@H](O)c3ccc(c(Cl)c3)Oc3cc2cc(c3O[C@@H]2O[C@H](CO)[C@@H](O)[C@H](O)[C@H]2O[C@H]2C[C@](C)(N)[C@H](O)[C@H](C)O2)Oc2ccc(cc2Cl)[C@H]1O [Vancomycin] is higher in MIC: 1 µg/mL (≈ 2.96 µM) for the first, > 128 µg/mL for the second.

Same assay, conditions: antibiotic against L. salivarius PS7

Compared with CN(C)[C@@H]1C(=O)C(C(N)=O)=C(O)[C@@]2(O)C(=O)C3=C(O)c4c(O)cccc4[C@@](C)(O)[C@H]3C[C@@H]12 [Tetracyclin], Gentamicin is 17-fold lower in “MICs (L. salivarius PS7)” value: 2 µg/mL for the first, 0.12 µg/mL for the second.

With Penicillin the “MICs (L. salivarius PS7)” value was 0.25 µg/mL.
